Assay results reported in patent publication US20200002432A1, “ANTI-CD98 ANTIBODIES AND ANTIBODY DRUG CONJUGATES” (AbbVie Inc., priority 2016, published 2020).

Legend:
[1] = test system: NCI-H460 human lung carcinoma xenograft; assay: NCI-H460 xenograft tumor growth inhibition in SCID-bg mice, with or without docetaxel; assay type: in vivo, mouse; details: QD × 1, Ab095 8 mg/kg IP, docetaxel 7.5 mg/kg IV, ADC 10 mg/kg IP, combination 7.5 + 10
Description: (§1) The cell lines A549 and NCI-H460 were obtained from the American Type Culture Collection (ATCC, Manassas, Va.). A549 cell line was further passaged in mice as flank xenograft to improve xenograft tumor growth, resulting in the A549-FP3 line. Cells were cultured as monolayers in RPMI-1640 culture media (Invitrogen, Carlsbad, Calif.) supplemented with 10% Fetal Bovine Serum (FBS, Hyclone, Logan, Utah). To generate xenografts, 5×10^6 (A549 and NCI-H460) viable cells were inoculated subcutaneously into the right flank of immune deficient female SCID-bg mice (Charles River Laboratories, Wilmington, Mass.). The injection volume was 0.2 ml and composed of 1:1 S-MEM:Matrigel Matrigel (BD, Franklin Lakes, N.J.). Tumors were size matched at approximately 223 mm^3. Antibodies, conjugates, and docetaxel were formulated in 0.9% sodium chloride for injection. […] Therapy began within 24 hours after size matching of the tumors. Mice weighed approximately 21 g at the onset of therapy. Tumor volume was estimated two to three times weekly. Measurements of the length (L) and width (W) of the tumor were taken via electronic caliper and the volume was calculated according to the following equation: V=L×W^2/2. […] Eight mice were housed per cage. […] Tumor growth inhibition is calculated by 100*(1−Tv/Cv) where Tv and Cv are the mean tumor volumes of the treated and control groups, respectively.

[2] = test system: A549-FP3 human lung carcinoma xenograft; assay: A549 FP3 xenograft tumor growth inhibition in SCID-bg mice, with or without docetaxel; assay type: in vivo, mouse; details: QD × 1, Ab095 8 mg/kg IP, docetaxel 7.5 mg/kg IV, ADC 10 mg/kg IP, combination 7.5 + 10
Description: as §1

CC(=O)O[C@@]12CO[C@@H]1C[C@H](O)[C@@]1(C)C(=O)[C@H](O)C3=C(C)[C@@H](OC(=O)[C@H](O)[C@@H](NC(=O)OC(C)(C)C)c4ccccc4)C[C@@](O)([C@@H](OC(=O)c4ccccc4)[C@H]21)C3(C)C [Docetaxel, reference compound]
TGD (%) [1]: 30%
TGImax (%) [1]: 35%
TGD (%) [2]: 80%
TGImax (%) [2]: 62%
